pIC50: −log10 of the molar value. Like-named read-outs stand apart in the source and are kept apart here.
Assays:
[1] = target: T1, native human Bradykinin B1 receptor (Homo sapiens, UniProt P46663); assay: Calcium flux Assay (FLIPR) with human fibroblasts expressing Bradykinin B1 receptor (hB1 IMR-90); format: cell-based; conditions: IMR-90 human fibroblasts expressing native Bradykinin B1 receptor
T1 construct: which express native human Bradykinin B1 receptor after induction with human IL-10; Coriell Institute; host or cells: IMR-90 human foetal lung fibroblasts, cytokine-induced
T1 sequence (P46663 1-353): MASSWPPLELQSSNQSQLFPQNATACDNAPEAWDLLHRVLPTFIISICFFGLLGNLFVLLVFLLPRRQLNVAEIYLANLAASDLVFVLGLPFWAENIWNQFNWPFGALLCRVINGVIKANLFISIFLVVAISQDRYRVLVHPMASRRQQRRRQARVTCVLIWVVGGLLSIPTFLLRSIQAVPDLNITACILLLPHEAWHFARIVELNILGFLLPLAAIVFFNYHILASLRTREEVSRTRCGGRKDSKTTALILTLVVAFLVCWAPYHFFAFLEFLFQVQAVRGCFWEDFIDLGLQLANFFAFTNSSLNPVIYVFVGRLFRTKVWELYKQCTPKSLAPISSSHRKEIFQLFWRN
How it was run: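 IMR-90 human foetal lung fibroblasts induced with 0.35 ng/mL […] for 3 h, Fluo-4/AM-loaded, preincubated with compound (8 concentrations, triplicate) for 30 min at 28 °C, then challenged with Lys-(Des-Arg)-bradykinin at EC90. Ca2+ fluorescence was read at 538 nm; full inhibition set by 20 µM Lys-(Des-Arg-Leu)-bradykinin; IC50 derived.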

[2] = target: T2, human Bradykinin B1 receptor (Homo sapiens, UniProt P46663); assay: Calcium flux Assay (FLIPR) with recombinant CHO-K1 cells expressing human Bradykinin B1 receptor, in presence (hB1 IC50) or absence (hB1 free IC50) of 0.1% BSA; format: cell-based
T2 construct: host or cells: CHO-K1
T2 sequence (P46663 1-353): T1 sequence (P46663 1-353)

[3] = in absence of 0.1% BSA, read-out: hB1 free IC50
[4] = in presence of 0.1% BSA, read-out: hB1 IC50

| Compound | pIC50 [1] | pIC50 [2, 3] | pIC50 [2, 4] |
| --- | --- | --- | --- |
| Cn1ncc2ccc(-c3ccc(NC(=O)C4(c5cccc(Cl)c5)CC4)cc3-c3nnn[nH]3)cc21 [Example 213, 1-(3-chlorophenyl)-N-[4-(1-methyl-1H-indazol-6-yl)-3-(1H-tetrazol-5-yl)phenyl] cyclopropane-carboxamide] | 7.61 | 7.74 | 7.20 |
| Cn1ncc2ccc(-c3ccc(NC(=O)C4(c5cccc(Cl)c5F)CC4)cc3-c3nnn[nH]3)cc21 [Example 214, 1-(3-chloro-2-fluorophenyl)-N-[4-(1-methyl-1H-indazol-6-yl)-3-(1H-tetrazol-5-yl)phenyl] cyclopropane carboxamide] | 7.57 | 8.10 | 7.33 |
| Cn1ncc2ccc(-c3ccc(NC(=O)C4(c5ccc(C(F)(F)F)cc5F)CC4)cc3-c3nnn[nH]3)cc21 [Example 215, 1-[2-fluoro-4-(trifluoromethyl)phenyl]-N-[4-(1-methyl-1H-indazol-6-yl)-3-(1H-tetrazol-5-yl)phenyl] cyclopropane-carboxamide] | 8.07 | 8.49 |  |
| CCn1cc(-c2ccc(NC(=O)C3(c4cccc(Cl)c4)CC3)cc2-c2nnn[nH]2)cn1 [Example 216, 1-(3-chlorophenyl)-N-[4-(1-ethyl-1H-pyrazol-4-yl)-3-(1H-tetrazol-5-yl)phenyl] cyclopropane-carboxamide] | 7.41 | 7.39 |  |
| CCOc1ccc(-c2ncc(NC(=O)C3(c4cccc(Cl)c4)CC3)cc2-c2nnn[nH]2)cn1 [Example 218, 1-(3-chlorophenyl)-N-[6′-ethoxy-3-(1H-tetrazol-5-yl)-2,3′-bipyridin-5-yl]cyclopropane carboxamide] | 7.50 | 6.58 | 7.12 |
| O=C(Nc1cc(-c2nnn[nH]2)c(-c2ccc(C(F)(F)F)nc2)cc1O)C1(c2ccc(F)c(Cl)c2)CC1 [Example 220, 1-(3-chloro-4-fluorophenyl)-N-{2-hydroxy-5-(1H-tetrazol-5-yl)-4-[6-(trifluoromethyl)pyridin-3-yl]phenyl} cyclopropane-carboxamide] | 7.64 | 7.56 | 7.30 |
| O=C(Nc1cc(-c2nnn[nH]2)c(-c2ccc(C(F)(F)F)nc2)cc1O)C1(c2cc(Cl)ccc2F)CC1 [Example 222] | 7.25 |  | 7.12 |
| O=C(Nc1cc(-c2nnn[nH]2)c(-c2ccc(C(F)(F)F)nc2)cc1O)C1(c2ccc(Cl)c(F)c2)CC1 [Example 224, 1-(4-chloro-3-fluorophenyl)-N-{2-hydroxy-5-(1H-tetrazol-5-yl)-4-[6-(trifluoromethyl)pyridin-3-yl]phenyl} cyclopropane-carboxamide] | 6.97 |  | 7.30 |
| CCOc1ccc(-c2cc(O)c(NC(=O)C3(c4ccc(Cl)cc4)CC3)cc2-c2nnn[nH]2)cn1 [Example 227, 1-(4-chlorophenyl)-N-[4-(6-ethoxypyridin-3-yl)-2-hydroxy-5-(1H-tetrazol-5-yl)phenyl] cyclopropane-carboxamide] | 6.75 |  | 7.08 |
| COc1ccc(-c2c(F)cc(NC(=O)C3(c4ccc(C(F)(F)F)cc4)CC3)cc2-c2nnn[nH]2)cc1OC [Example 232, N-[2-Fluoro-3′,4′-dimethoxy-6-(1H-tetrazol-5-yl)biphenyl-4-yl]-1-[4-(trifluoromethyl)phenyl] cyclopropane-carboxamide] | 8.17 | 8.08 | 7.73 |
| COc1cc(-c2ccc(NC(=O)C3(c4cccc(Cl)c4)CC3)cc2-c2nnn[nH]2)ccc1C(F)(F)F [Example 233, 1-(3-chlorophenyl)-N-[3′-methoxy-2-(1H-tetrazol-5-yl)-4′-(trifluoromethyl)biphenyl-4-yl]cyclopropane carboxamide] | 7.45 | 7.72 | 7.16 |
| COc1ccc(-c2c(F)cc(NC(=O)C3(c4cccc(Cl)c4)CC3)cc2-c2nnn[nH]2)cc1OC [Example 234, 1-(3-Chlorophenyl)-N-[2-fluoro-3′,4′-dimethoxy-6-(1H-tetrazol-5-yl)biphenyl-4-yl]cyclopropane carboxamide] | 7.73 | 7.96 | 7.52 |
| CCOc1ccc(-c2c(F)cc(NC(=O)C3(c4cccc(Cl)c4)CC3)cc2-c2nnn[nH]2)cn1 [Example 236, 1-(3-chlorophenyl)-N-[4-(6-ethoxypyridin-3-yl)-3-fluoro-5-(1H-tetrazol-5-yl)phenyl] cyclopropane-carboxamide] | 7.81 | 8.54 |  |
| CCOc1ccc(-c2c(F)cc(NC(=O)C3(c4ccc(C(F)(F)F)cc4F)CC3)cc2-c2nnn[nH]2)cn1 [Example 240, N-[4-(6-ethoxypyridin-3-yl)-3-fluoro-5-(1H-tetrazol-5-yl)phenyl]-1-[2-fluoro-4-(trifluoromethyl)phenyl] cyclopropane-carboxamide] | 8.55 | 8.63 |  |
| O=C(Nc1cc(F)c(-c2ccc(C(F)(F)F)nc2)c(-c2nnn[nH]2)c1)C1(c2cccc(Cl)c2)CC1 [Example 241, 1-(3-chlorophenyl)-N-{3-fluoro-5-(1H-tetrazol-5-yl)-4-[6-(trifluoromethyl)pyridin-3-yl]phenyl} cyclopropane-carboxamide] | 6.90 | 7.27 |  |
| O=C(Nc1cc(F)c(-c2ccc(C(F)(F)F)nc2)c(-c2nnn[nH]2)c1)C1(c2ccc(C(F)(F)F)cc2F)CC1 [Example 242, N-{3-fluoro-5-(1H-tetrazol-5-yl)-4-[6-(trifluoromethyl)pyridin-3-yl]phenyl}-1-[2-fluoro-4-(trifluoromethyl)phenyl] cyclopropane-carboxamide] | 7.64 | 8.01 |  |
| O=C(Nc1cc(F)c(-c2ccnc(C(F)(F)F)c2)c(-c2nnn[nH]2)c1)C1(c2cccc(Cl)c2)CC1 [Example 243, 1-(3-chlorophenyl)-N-{3-fluoro-5-(1H-tetrazol-5-yl)-4-[2-(trifluoromethyl)pyridin-4-yl]phenyl} cyclopropane-carboxamide] | 6.24 | 6.69 |  |
| O=C(Nc1cc(F)c(-c2ccnc(C(F)(F)F)c2)c(-c2nnn[nH]2)c1)C1(c2ccc(F)c(F)c2)CC1 [Example 244, 1-(3,4-difluorophenyl)-N-{3-fluoro-5-(1H-tetrazol-5-yl)-4-[2-(trifluoromethyl)pyridin-4-yl]phenyl} cyclopropane-carboxamide] | 6.29 | 6.75 |  |
| Cc1ccc(-c2c(F)cc(NC(=O)C3(c4cccc(Cl)c4)CC3)cc2-c2nnn[nH]2)cn1 [Example 245, 1-(3-chlorophenyl)-N-[3-fluoro-4-(6-methylpyridin-3-yl)-5-(1H-tetrazol-5-yl)phenyl] cyclopropane-carboxamide] | 8.11 | 8.09 |  |
| CCOc1ccc(-c2c(Cl)cc(NC(=O)C3(c4cccc(Cl)c4)CC3)cc2-c2nnn[nH]2)cn1 [Example 247, N-[3-chloro-4-(6-ethoxypyridin-3-yl)-5-(1H-tetrazol-5-yl)phenyl]-1-(3-chlorophenyl) cyclopropane-carboxamide] | 7.43 | 7.70 | 7.21 |
| CCOc1ccc(-c2c(Cl)cc(NC(=O)C3(c4cccc(Cl)c4F)CC3)cc2-c2nnn[nH]2)cn1 [Example 248, N-[3-chloro-4-(6-ethoxypyridin-3-yl)-5-(1H-tetrazol-5-yl)phenyl]-1-(3-chloro-2-fluoropheny) cyclopropane-carboxamide] | 7.60 | 7.84 |  |
| O=C(Nc1ccc(-c2ccnc(C(F)F)c2)c(-c2nnn[nH]2)c1)C1(c2ccc(C(F)(F)F)cc2F)CC1 [Example 258, N-{4-[2-(difluoromethyl)pyridin-4-yl]-3-(1H-tetrazol-5-yl)phenyl}-1-[2-fluoro-4-(trifluoromethyl)phenyl]cyclopro-panecarboxamide] | 7.33 | 7.45 |  |
| O=C(Nc1ccc(-c2ccc(C(F)F)nc2)c(-c2nnn[nH]2)c1)C1(c2ccc(C(F)(F)F)cc2F)CC1 [Example 259, N-{4-[6-(difluoromethyl)pyridin-3-yl]-3-(1H-tetrazol-5-yl)phenyl}-1-[2-fluoro-4-(trifluoromethyl)phenyl]cyclopro-panecarboxamide] | 7.97 | 8.45 |  |
| O=C(Nc1ccc(-c2ccc(C(F)F)nc2)c(-c2nnn[nH]2)c1)C1(c2cccc(Cl)c2)CC1 [Example 260, 1-(3-chlorophenyl)-N-{4-[6-(difluoromethyl)pyridin-3-yl]-3-(1H-tetrazol-5-yl)phenyl}cyclopro-panecarboxa-mide] | 7.83 | 7.73 |  |
| O=C(Nc1ccc(-c2cnc(C(F)(F)F)nc2)c(-c2nnn[nH]2)c1)C1(c2ccc(C(F)(F)F)cc2F)CC1 [Example 261, 1-[2-fluoro-4-(trifluoromethyl)phenyl]-N-{3-(1H-tetrazol-5-yl)-4-[2-(trifluoromethyl)pyrimidin-5-yl]phenyl}cyclopro-panecarboxa-mide] | 6.69 | 6.67 |  |
| CCOc1ccc(-c2cc(O)c(NC(=O)C3(c4cccc(Cl)c4)CC3)cc2-c2nnn[nH]2)cn1 [Example 263, 1-(3-chlorophenyl)-N-[4-(6-ethoxypyridin-3-yl)-2-hydroxy-5-(1H-tetrazol-5-yl)phenyl]cyclopro-panecarboxa-mide] | 7.47 | 8.11 | 7.46 |

Reference: patent US20210317092A1 (BAYER PHARMA AKTIENGESELLSCHAFT, priority 2016, published 2021)
